We go through two compounds from article PMC10743537 (2023).

Molecules are shown by their SMILES.

This assay has as its system nicked decamer duplex 3 (DNA, duplex, PEG(6) tether between positions 5 and 6 (C10/G11 in paper numbering) and between positions 15 and 16 (C20/G1); nick between T5 (3' end, position 20) and G6 (5' end, position 1)) GTCGCGCGACAACGCGCGTT
Briefly: NMR diffusion (DOSY). The conditions noted are these: 25 mM NaCl, 25 mM K3PO4; D2O buffer, pH 6.0, 10 °C; 0.60 mM each; 1:1 model assumed, self-association neglected.

For the compound `CCc1c2c(nc3ccc(O)cc13)-c1cc3c(c(=O)n1[C@H]2CN1CCCC1)COC(=O)[C@]3(O)CC`, the Ka was 76 mM⁻¹.
With `CCc1c2c(nc3ccc(O)cc13)-c1cc3c(c(=O)n1[C@@H]2CN1CCCC1)COC(=O)[C@]3(O)CC` the figure was 150 mM⁻¹.
